The text below walks through data of patent US20250114464A1, “PRE-MRNA SLICE MODULATING PEPTIDE-CONJUGATED ANTISENSE THERAPEUTICS FOR THE TREATMENT OF DISEASES” (The Governors of the University of Alberta, priority 2022, published 2025).

Data set [1] concerns dystrophin. The following applies: in vitro; cited from earlier work.
The subject of data set [2] is dystrophin. The settings on record: patients, after 180 weeks of treatment with 30 or 50 mg/kg/week; cited from earlier work.
Data set [3] has as its system Taiwanese SMA mouse model (Smn^−/− SMN2^Tg/−). Description: Neuromuscular junction (NMJ) staining at PD30. In kind it is in vivo, mice. The settings on record: 40 mg/kg at PD0. As to the method:
NMJ staining was carried out as previously described. Briefly, the quadricep and the intercostal muscle were fixed in 4% paraformaldehyde (PFA) for 2 hours. The muscles were washed quicky with PBS and blocked with 5% goat serum and 2% Triton-X in PBS for 1 hour at RT. This was followed by an overnight incubation at 4 with the primary mouse monoclonal antibodies anti-neurofilament 2H3 (1:100) and anti-synaptophysin (1:500) (DSHB, Iowa). Subsequently, the muscles were incubated in the dark with Alexafluor 488-goat anti-mouse IgG1 (1:1000) (Life Technologies) and Alexafluor 594-bungarotoxin (1:5000) (ThermoFisher Scientific). At least 300 NMJs were z-stacked and visualized for the analysis of denervation and cross-sectional area using a confocal microscope (Zeiss LSM 710) and Zeiss Zen software. The synaptic area was quantified using image J. All analyses were performed in a blinded fashion.

For data set [4] the test system is unchanged. Put plainly: Righting reflex test. The settings on record: 40 mg/kg at PD0; mice that survived beyond PD12. In kind it is in vivo. On the procedure:
This spontaneous ability of the mice to right themselves up was tested from P2 until the weaning stage P20. The neonates were placed on their backs and the time taken to reposition and place all four paws on the ground was noted. The recording time was a maximum of 60 s. Each neonate underwent three trials, with a resting period of at least 10 minutes between trials. The data is expressed as the mean time to complete the righting reflex test ±SEM.

Data set [5] shares this test system. Put plainly: H and E muscle pathology (myofiber size, centrally nucleated fibers) in SMA mice. In kind it is in vivo. The following applies: 40 mg/kg at PD0. From the text: Atrophic musculature is a classical characteristic feature of SMA with diminished skeletal muscle fiber size. To determine the treatment effects on muscle pathology, we assessed the physiology and architecture of the myofibers of two affected muscle groups− the quadriceps and intercostal muscles, as well as the sparingly affected diaphragm at PD7 and PD30 [79,80]. We quantified the cross-sectional area (CSA), the minimal feret's diameter and centrally nucleated fibers for at least 500 myofibers per muscle for each treatment using hematoxylin & eosin (H & E) staining at PD7 and PD30 (FIG. 12a, b, FIGS. 19 and 20).
7 μm cryosections of the quadricep muscle, diaphragm and intercostal muscle were stained with Meyer's H&E reagents (Electron Microscopy Reagents). For the centrally nucleated fibers and myofiber size, 500-800 were randomly selected per muscle per treatment. The cross-sectional area and minimal Feter's diameter were quantified using Image J. All H and E analyses were performed in a blinded fashion.

Data set [6] has the same test system. Put plainly: Survival of severe SMA mice after subcutaneous injection at PD0. In kind it is in vivo. As to the method: To examine whether DG9 peptide can increase the efficacy of PMO, DGS peptide was conjugated to an 18-mer PMO with a sequence identical to nusinersen. The DG9-conjugated PMO and unconjugated-PMO and 2′-O-methoxyethyl-RNA (MOE) were injected into SMA model mice.
Mice were subcutanteously injected with the AOs or saline (NT) administered at postnatal day 0 (PD0) at two different doses-40 mg/kg or 80 mg/kg. The survival was recorded until a humane endpoint was reached. For the 40 mg/kg doses, the median survival was 12 d (unconjugated-PMO), 15.5 d (MOE), and increased to 58 d for DG9-PMO treatment (FIG. 9a). The median survival incremented to 57 d (unconjugated-PMO), 121 d (DG9-PMO) and 64 d (MOE) for the higher dose of 80 mg/kg (FIG. 9a).
All animal experiments were conducted in University of Alberta and approved by the Animal Care and Use Committee, University of Alberta Research Ethics Office. SMA transgenic mice (JAX stock #005058 FVB.Cg-Tg(SMN2)2HungSmn1^tm1Hung/J (Smn^−/−; SMN2^Tg/Tg), also known as the Taiwanese mice) were purchased from Jackson Laboratory (Bar Harbor, ME, USA). Heterozygous mice for Smn1 (Smn1^+/−; SMN2^−/−) were crossed with mice homozygous for Smn1 Smn^−/−; SMN2^Tg/Tg to obtain the SMA mice (Smn^−/−; SMN2^Tg/−) or the heterozygous healthy control (Smn1^+/−; SMN2^Tg/−). The SMA mice display a severe overt phenotype similar to SMA type I patients. […]

Data set [7] shares this test system. Put plainly: Whole-body plethysmographic recordings at PD7. In kind it is in vivo, mice. The settings on record: 40 mg/kg at PD0. As to the method: Measurements were performed in whole body, cylindrical transparent plexiglass plethysmographs that had one inflow and two outflow ports for the continuous delivery of fresh room air and removal of expired carbon dioxide. The plethysmograph of volumes were 10 ml (inner diameter: 1.9 cm, length: 3.5 cm for P7 mice with body weight less than 2.5 g), 30 ml (inner diameter: 2.6 cm, length: 5.6 cm for P7 mice with body weight more than 2.5 g) and 80 ml (inner diameter: 3.8 cm, length: 7 cm for P30) for measures of respiratory parameters with a flow rate of 15, 45, 120 ml/min, respectively. The gas was mixed with gas mixer (GSM-3, CWE InC, USA), delivered from compressed pure oxygen and pure nitrogen cannisters, being monitored using 0-200 ml/min gas regulators (Porter Instrument Company, USA).
Hypoxic challenge (11% of oxygen for 5 min) was performed with continuous monitoring of plethysmographic recordings without physical handling of the animal by switching inflow gas from normoxia (21% of oxygen, balanced by nitrogen) to hypoxia (11% of oxygen, balanced by nitrogen). […] For P30, the plethysmograph was recorded at room temperature of around 22° C. Pressure changes were detected with a pressure transducer (model DP 103; Validyne, USA), signal conditioner (CD-15; Validyne), recorded with data acquisition software (Axoscope) via analog-digital board (Digidata 1322A). […]

For the substance “Ex51_Ac0: exon 51-skipping PMO, GTGTCACCAGAGTAACAGTCTGAGTAGGAG (all phosphorodiamidate morpholino (PMO); DG9 cell-penetrating peptide conjugated at 3' end in DG9-PMO)”, the “effectiveness in restoring dystrophin production relative to eteplirsen” value in the data set on dystrophin [1] is “up to 7 times”.
eteplirsen: in the data set with dystrophin [2], the “dystrophin of normal levels” value is 0.93%.
In the case of “unconjugated-PMO: Example 2: 18-mer PMO targeting ISS-N1 intron 7 (5′-TCACTTTCATAATGCTGG-3′), sequence identical to nusinersen (all phosphorodiamidate morpholino (PMO); unconjugated)”, the NMJ architecture entry in data set [3] was “smaller endplates and collapsed vesicles”. Moreover, the “full innervation of NMJs” value in data set [3] (quadriceps and intercostal muscles) was 40-50%. In data set [4], the “time to right themselves on their paws” value was “still took longer than DG9-PMO mice”. In addition, the quadriceps myofiber size entry in data set [5] (PD7) is on record as “significantly smaller than those of DG9-PMO”. Besides, the “myofiber size and percent of central nuclei” value in data set [5] (PD30, all three tissue types) was “significantly smaller myofibers and a higher percent of central nuclei compared to DG9-PMO”. Also, the median survival in data set [6] (40 mg/kg subcutaneous at PD0) turned out to be 12 days; in data set [6] (80 mg/kg subcutaneous at PD0), 57 days. Besides, the “respiratory parameters (fR, VE, VT)” value in data set [7] (PD7, hypoxic environment (11% O2), relative to normoxia) is “slow, weak, and irregular breathing when compared to the Hets”. Besides, in data set [7] (PD7, normoxic conditions (21% O2)), the respiratory phenotype entry is listed as “Half of the unconjugated-PMO mice (n=14) exhibited parameters as seen in NT mice”.
